# Measurements as given in PubChem BioAssay (NCI).
#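 96-well plates; 48 h exposure; 5 concentrations. Endpoints by linear interpolation between flanking doses. Not reached: highest tested concentration assigned. TGI denotes the concentration required for complete inhibition of growth.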
# What was measured:
# Experiment in all cases: NCI-60 cell line screen, 48 h
# [1] = test system: 786-0 renal
# [2] = test system: A498 renal
# [3] = test system: A549 NSCLC
# [4] = test system: ACHN renal
# [5] = test system: BT-549 breast
# [6] = test system: CAKI-1 renal
# [7] = test system: CCRF-CEM leukemia
# [8] = test system: COLO 205 colon
# [9] = test system: DU-145 prostate
# [10] = test system: HCC-2998 colon
# [11] = test system: HCT-116 colon
# [12] = test system: HCT-15 colon
# [13] = test system: HL-60(TB) leukemia
# [14] = test system: HOP-62 NSCLC
# [15] = test system: HOP-92 NSCLC
# [16] = test system: HS 578T breast
# [17] = test system: HT29 colon
# [18] = test system: IGROV1 ovarian
# [19] = test system: K-562 leukemia
# [20] = test system: KM12 colon
# [21] = test system: LOX IMVI melanoma
# [22] = test system: M14 melanoma
# [23] = test system: MALME-3M melanoma
# [24] = test system: MCF7 breast
# [25] = test system: MDA-MB-231 breast
# [26] = test system: MDA-MB-435
# [27] = test system: MDA-N
# [28] = test system: MOLT-4 leukemia
# [29] = test system: NCI-H23 lung
# [30] = test system: NCI-H460 lung
# [31] = test system: NCI/ADR-RES ovarian
# [32] = test system: OVCAR-3 ovarian
# [33] = test system: OVCAR-4 ovarian
# [34] = test system: OVCAR-5 ovarian
# [35] = test system: PC-3 prostate
# [36] = test system: RPMI-8226 leukemia
# [37] = test system: RXF 393 renal
# [38] = test system: SF-268 CNS
# [39] = test system: SF-295 CNS
# [40] = test system: SF-539 CNS
# [41] = test system: SK-MEL-2 melanoma
# [42] = test system: SK-MEL-28 melanoma
# [43] = test system: SK-MEL-5 melanoma
# [44] = test system: SK-OV-3 ovarian
# [45] = test system: SN12C renal
# [46] = test system: SNB-19 CNS
# [47] = test system: SNB-75 CNS
# [48] = test system: SR leukemia
# [49] = test system: SW-620 colon
# [50] = test system: T-47D breast
# [51] = test system: TK-10 renal
# [52] = test system: U251 CNS
# [53] = test system: UACC-257 melanoma
# [54] = test system: UACC-62 melanoma
# [55] = test system: UO-31 renal
# [56] = test system: EKVX NSCLC
# [57] = test system: OVCAR-8 ovarian
smiles,measurement,setting,value
[N-]=[N+]=NC1(c2ccccc2)C(=O)Nc2ccccc2C1=O (stereo not drawn),TGI,[1],> 100 µM
same,TGI,[2],43.4 µM
same,TGI,[3],> 100 µM
same,TGI,[4],> 100 µM
same,TGI,[5],34.8 µM
same,TGI,[6],> 100 µM
same,TGI,[7],> 100 µM
same,TGI,[8],> 100 µM
same,TGI,[9],> 100 µM
same,TGI,[10],> 100 µM
same,TGI,[11],> 100 µM
same,TGI,[12],> 100 µM
same,TGI,[13],> 100 µM
same,TGI,[14],> 100 µM
same,TGI,[15],84.5 µM
same,TGI,[16],76.9 µM
same,TGI,[17],> 100 µM
same,TGI,[18],> 100 µM
same,TGI,[19],> 100 µM
same,TGI,[20],> 100 µM
same,TGI,[21],> 100 µM
same,TGI,[22],74.6 µM
same,TGI,[23],> 100 µM
same,TGI,[24],> 100 µM
same,TGI,[25],> 100 µM
same,TGI,[26],44.1 µM
same,TGI,[27],> 100 µM
same,TGI,[28],76.6 µM
same,TGI,[29],> 100 µM
same,TGI,[30],> 100 µM
same,TGI,[31],> 100 µM
same,TGI,[32],> 100 µM
same,TGI,[33],> 100 µM
same,TGI,[34],> 100 µM
same,TGI,[35],> 100 µM
same,TGI,[36],> 100 µM
same,TGI,[37],75.9 µM
same,TGI,[38],> 100 µM
same,TGI,[39],> 100 µM
same,TGI,[40],> 100 µM
same,TGI,[41],67.3 µM
same,TGI,[42],> 100 µM
same,TGI,[43],33.1 µM
same,TGI,[44],> 100 µM
same,TGI,[45],> 100 µM
same,TGI,[46],> 100 µM
same,TGI,[47],> 100 µM
same,TGI,[48],> 100 µM
same,TGI,[49],82.4 µM
same,TGI,[50],> 100 µM
same,TGI,[51],> 100 µM
same,TGI,[52],> 100 µM
same,TGI,[53],> 100 µM
same,TGI,[54],76.3 µM
same,TGI,[55],73.8 µM
O=C1/C(=C/c2ccccc2S)N=C(c2ccccc2)N1c1ccc2c(c1)Sc1cc(N3C(=O)/C(=C/c4ccccc4S)N=C3c3ccccc3)ccc1N2,TGI,[1],46.4 µM
same,TGI,[2],35.4 µM
same,TGI,[3],35 µM
same,TGI,[4],33.5 µM
same,TGI,[5],73.5 µM
same,TGI,[6],41.7 µM
same,TGI,[7],33.3 µM
same,TGI,[8],> 100 µM
same,TGI,[9],40.4 µM
same,TGI,[56],41.6 µM
same,TGI,[10],37.1 µM
same,TGI,[11],40.8 µM
same,TGI,[12],> 100 µM
same,TGI,[14],72.7 µM
same,TGI,[15],34.5 µM
same,TGI,[16],72.4 µM
same,TGI,[17],> 100 µM
same,TGI,[18],29.1 µM
same,TGI,[19],51 µM
same,TGI,[20],> 100 µM
same,TGI,[21],48.1 µM
same,TGI,[22],35 µM
same,TGI,[24],39.1 µM
same,TGI,[25],89.9 µM
same,TGI,[26],48.9 µM
same,TGI,[27],51.3 µM
same,TGI,[28],39.7 µM
same,TGI,[30],63.7 µM
same,TGI,[31],> 100 µM
same,TGI,[32],38.1 µM
same,TGI,[33],90.5 µM
same,TGI,[34],35.6 µM
same,TGI,[57],43.1 µM
same,TGI,[35],46.9 µM
same,TGI,[36],46.8 µM
same,TGI,[38],39.6 µM
same,TGI,[39],39.9 µM
same,TGI,[40],24.1 µM
same,TGI,[41],44.8 µM
same,TGI,[42],44.5 µM
same,TGI,[43],30.7 µM
same,TGI,[44],33.8 µM
same,TGI,[45],34.3 µM
same,TGI,[46],30.4 µM
same,TGI,[47],38.4 µM
same,TGI,[48],40.4 µM
same,TGI,[49],41.6 µM
same,TGI,[50],51.3 µM
same,TGI,[51],31.3 µM
same,TGI,[52],40.5 µM
same,TGI,[53],42.3 µM
same,TGI,[54],42.7 µM
same,TGI,[55],29.9 µM
